# Results taken from ChEMBL document CHEMBL1201862, “PubChem BioAssay data set” (2004).
#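 Protocol summary: plate cells (96-well), add compound at 5 concentrations, incubate 48 h, interpolate endpoints linearly. GI50: concentration for 50% inhibition of growth.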 Calls of active or inactive are those of the source. Rule as the data show it: active = GI50 up to about 1.1 µM and inactive = higher.
# How the values were obtained:
# Assay in all cases: inhibition of tumour cell growth, NCI panel, 48 h
# 786-0 = tested on: 786-0
# A498 = tested on: A498
# A549 = tested on: A549
# ACHN = tested on: ACHN
# CAKI-1 = tested on: CAKI-1
# CCRF-CEM = tested on: CCRF-CEM
# COLO 205 = tested on: COLO 205
# DLD-1 = tested on: DLD-1
# DMS-114 = tested on: DMS-114
# DMS-273 = tested on: DMS-273
# EKVX = tested on: EKVX
# HCC 2998 = tested on: HCC 2998
# HCT-116 = tested on: HCT-116
# HCT-15 = tested on: HCT-15
# HL-60 = tested on: HL-60
# HOP-18 = tested on: HOP-18
# HOP-62 = tested on: HOP-62
# HOP-92 = tested on: HOP-92
# HT-29 = tested on: HT-29
# IGROV-1 = tested on: IGROV-1
# K562 = tested on: K562
# KM-20L2 = tested on: KM-20L2
# KM12 = tested on: KM12
# LOX IMVI = tested on: LOX IMVI
# LXFL 529 = tested on: LXFL 529
# M14 = tested on: M14
# M19-MEL = tested on: M19-MEL
# MOLT-4 = tested on: MOLT-4
# Malme-3M = tested on: Malme-3M
# NCI-H226 = tested on: NCI-H226
# NCI-H23 = tested on: NCI-H23
# NCI-H460 = tested on: NCI-H460
# NCI-H522 = tested on: NCI-H522
# OVCAR-3 = tested on: OVCAR-3
# OVCAR-4 = tested on: OVCAR-4
# OVCAR-5 = tested on: OVCAR-5
# OVCAR-8 = tested on: OVCAR-8
# RPMI-8226 = tested on: RPMI-8226
# RXF 393 = tested on: RXF 393
# SF-268 = tested on: SF-268
# SF-295 = tested on: SF-295
# SF-539 = tested on: SF-539
# SK-MEL-28 = tested on: SK-MEL-28
# SK-MEL-2 = tested on: SK-MEL-2
# SK-MEL-5 = tested on: SK-MEL-5
# SK-OV-3 = tested on: SK-OV-3
# SN12C = tested on: SN12C
# SNB-19 = tested on: SNB-19
# SNB-75 = tested on: SNB-75
# SNB-78 = tested on: SNB-78
# SR = tested on: SR
# SW-620 = tested on: SW-620
# TK-10 = tested on: TK-10
# U-251 = tested on: U-251
# UACC-257 = tested on: UACC-257
# UACC-62 = tested on: UACC-62
# UO-31 = tested on: UO-31
# XF498 = tested on: XF498
# BT-549 = tested on: BT-549
# DU-145 = tested on: DU-145
# MCF7 = tested on: MCF7
# MDA-MB-231 = tested on: MDA-MB-231
# MDA-MB-435 = tested on: MDA-MB-435
# MDA-N = tested on: MDA-N
# NCI/ADR-RES = tested on: NCI/ADR-RES
# PC-3 = tested on: PC-3
# T47D = tested on: T47D
structure (smiles),measurement,setting,value
CC1=C(C(=O)NCc2ccccc2)C(c2ccccc2O)C(C(=O)NCc2ccccc2)=C(C)N1,GI50,786-0,19.3 µM (inactive)
same,GI50,A498,19 µM (inactive)
same,GI50,A549,20.8 µM (inactive)
same,GI50,ACHN,16.4 µM (inactive)
same,GI50,CAKI-1,18.3 µM (inactive)
same,GI50,CCRF-CEM,26.5 µM (inactive)
same,GI50,COLO 205,16.9 µM (inactive)
same,GI50,DLD-1,15.1 µM (inactive)
same,GI50,DMS-114,18.2 µM (inactive)
same,GI50,DMS-273,14.6 µM (inactive)
same,GI50,EKVX,22.2 µM (inactive)
same,GI50,HCC 2998,21 µM (inactive)
same,GI50,HCT-116,14.4 µM (inactive)
same,GI50,HCT-15,13.6 µM
same,GI50,HL-60,17.3 µM (inactive)
same,GI50,HOP-18,23.9 µM (inactive)
same,GI50,HOP-62,19.9 µM (inactive)
same,GI50,HOP-92,22.4 µM (inactive)
same,GI50,HT-29,19.5 µM (inactive)
same,GI50,IGROV-1,19.5 µM (inactive)
same,GI50,K562,36.1 µM (inactive)
same,GI50,KM-20L2,19.9 µM (inactive)
same,GI50,KM12,16.6 µM (inactive)
same,GI50,LOX IMVI,14.5 µM (inactive)
same,GI50,LXFL 529,15 µM (inactive)
same,GI50,M14,17.9 µM (inactive)
same,GI50,M19-MEL,18.2 µM (inactive)
same,GI50,MOLT-4,31.3 µM (inactive)
same,GI50,Malme-3M,15.7 µM (inactive)
same,GI50,NCI-H226,16.6 µM (inactive)
same,GI50,NCI-H23,17.1 µM (inactive)
same,GI50,NCI-H460,18.4 µM (inactive)
same,GI50,NCI-H522,16.5 µM (inactive)
same,GI50,OVCAR-3,17.4 µM (inactive)
same,GI50,OVCAR-4,17 µM (inactive)
same,GI50,OVCAR-5,18.9 µM (inactive)
same,GI50,OVCAR-8,18.7 µM (inactive)
same,GI50,RPMI-8226,29.6 µM (inactive)
same,GI50,RXF 393,17.9 µM (inactive)
same,GI50,SF-268,22.9 µM (inactive)
same,GI50,SF-295,21.1 µM (inactive)
same,GI50,SF-539,18.4 µM (inactive)
same,GI50,SK-MEL-28,18 µM (inactive)
same,GI50,SK-MEL-2,15.4 µM (inactive)
same,GI50,SK-MEL-5,15 µM (inactive)
same,GI50,SK-OV-3,26.1 µM (inactive)
same,GI50,SN12C,17.1 µM (inactive)
same,GI50,SNB-19,19.2 µM (inactive)
same,GI50,SNB-75,23.6 µM (inactive)
same,GI50,SNB-78,27.9 µM (inactive)
same,GI50,SR,28.9 µM (inactive)
same,GI50,SW-620,17.7 µM (inactive)
same,GI50,TK-10,17.9 µM (inactive)
same,GI50,U-251,15.5 µM (inactive)
same,GI50,UACC-257,16.1 µM (inactive)
same,GI50,UACC-62,16.1 µM (inactive)
same,GI50,UO-31,16.7 µM (inactive)
same,GI50,XF498,17 µM (inactive)
C/C(=N\NC(=S)Nc1ccc(C(=O)O)cc1)c1ccccn1,GI50,786-0,17.4 µM (inactive)
same,GI50,A498,25 µM (inactive)
same,GI50,A549,39.1 µM (inactive)
same,GI50,ACHN,16.7 µM (inactive)
same,GI50,CAKI-1,29.5 µM (inactive)
same,GI50,CCRF-CEM,17.4 µM (inactive)
same,GI50,COLO 205,18.4 µM (inactive)
same,GI50,DLD-1,27.7 µM (inactive)
same,GI50,DMS-114,23.1 µM (inactive)
same,GI50,DMS-273,24 µM (inactive)
same,GI50,EKVX,27.9 µM (inactive)
same,GI50,HCC 2998,15 µM (inactive)
same,GI50,HCT-116,23.5 µM (inactive)
same,GI50,HCT-15,26.5 µM
same,GI50,HL-60,20.7 µM (inactive)
same,GI50,HOP-18,24.7 µM (inactive)
same,GI50,HOP-62,30.5 µM (inactive)
same,GI50,HOP-92,43.6 µM (inactive)
same,GI50,HT-29,34.7 µM (inactive)
same,GI50,IGROV-1,31.8 µM (inactive)
same,GI50,K562,40.1 µM (inactive)
same,GI50,KM-20L2,25.8 µM (inactive)
same,GI50,KM12,25.5 µM (inactive)
same,GI50,LOX IMVI,16.7 µM (inactive)
same,GI50,LXFL 529,3.05 µM (inactive)
same,GI50,M14,15.1 µM (inactive)
same,GI50,M19-MEL,20.1 µM (inactive)
same,GI50,MOLT-4,33.3 µM (inactive)
same,GI50,Malme-3M,15.5 µM (inactive)
same,GI50,NCI-H226,18.2 µM (inactive)
same,GI50,NCI-H23,36.9 µM (inactive)
same,GI50,NCI-H460,21.6 µM (inactive)
same,GI50,OVCAR-3,13.7 µM (inactive)
same,GI50,OVCAR-4,15.1 µM (inactive)
same,GI50,OVCAR-5,21.3 µM (inactive)
same,GI50,OVCAR-8,16 µM (inactive)
same,GI50,RPMI-8226,29.8 µM (inactive)
same,GI50,RXF 393,35 µM (inactive)
same,GI50,SF-268,49.9 µM (inactive)
same,GI50,SF-295,40.4 µM (inactive)
same,GI50,SF-539,18.3 µM (inactive)
same,GI50,SK-MEL-28,44 µM (inactive)
same,GI50,SK-MEL-2,17.6 µM (inactive)
same,GI50,SK-MEL-5,16.9 µM (inactive)
same,GI50,SN12C,19.7 µM (inactive)
same,GI50,SNB-75,20.5 µM (inactive)
same,GI50,SNB-78,> 100 µM (inactive)
same,GI50,SR,12.2 µM (inactive)
same,GI50,SW-620,19.2 µM (inactive)
same,GI50,TK-10,30.6 µM (inactive)
same,GI50,U-251,24.2 µM (inactive)
same,GI50,UACC-257,25.4 µM (inactive)
same,GI50,UACC-62,5.04 µM (inactive)
same,GI50,UO-31,11.6 µM (inactive)
same,GI50,XF498,26.4 µM (inactive)
C=C1CC2CC[C@@]34C[C@H]5O[C@@H]6C(O[C@H]7CC[C@H](CC(=O)OC8[C@H](C)C9OC%10C[C@]%11(C[C@@H]%12O[C@]%13(C[C@H](C)[C@@H]%14O[C@H]([C@H](O)C[C@H](O)CO)C[C@@H]%14O%13)C[C@H](C)[C@@H]%12O%11)OC%10CC9O[C@H]8C[C@H]8O[C@H](CC[C@@H]1O2)C[C@@H](C)C8=C)O[C@H]7[C@@H]6O3)[C@@H]5O4 (stereo not given in full),GI50,786-0,0.00246 µM (active)
same,GI50,A498,0.00108 µM (active)
same,GI50,A549,0.00147 µM (active)
same,GI50,ACHN,0.00411 µM (active)
same,GI50,BT-549,1.31 µM (inactive)
same,GI50,CAKI-1,0.000491 µM (active)
same,GI50,CCRF-CEM,0.000588 µM (active)
same,GI50,COLO 205,0.000492 µM (active)
same,GI50,DLD-1,0.0018 µM (active)
same,GI50,DMS-114,0.00037 µM (active)
same,GI50,DMS-273,0.000538 µM (active)
same,GI50,DU-145,0.000113 µM (active)
same,GI50,EKVX,0.000141 µM (active)
same,GI50,HCC 2998,0.00201 µM (active)
same,GI50,HCT-116,0.000513 µM (active)
same,GI50,HCT-15,0.000935 µM
same,GI50,HL-60,0.000237 µM (active)
same,GI50,HOP-18,< 0.01 µM (active)
same,GI50,HOP-62,0.00131 µM (active)
same,GI50,HOP-92,0.00166 µM (active)
same,GI50,HT-29,0.000372 µM (active)
same,GI50,IGROV-1,0.00218 µM (active)
same,GI50,K562,0.000484 µM (active)
same,GI50,KM-20L2,0.000395 µM (active)
same,GI50,KM12,0.00046 µM (active)
same,GI50,LOX IMVI,0.000597 µM (active)
same,GI50,LXFL 529,0.00129 µM (active)
same,GI50,M14,0.00143 µM (active)
same,GI50,M19-MEL,0.000618 µM (active)
same,GI50,MCF7,0.000255 µM (active)
same,GI50,MDA-MB-231,0.000728 µM (active)
same,GI50,MDA-MB-435,0.0001 µM (active)
same,GI50,MDA-N,0.0001 µM (active)
same,GI50,MOLT-4,0.000752 µM (active)
same,GI50,Malme-3M,0.00131 µM (active)
same,GI50,NCI-H226,0.00231 µM (active)
same,GI50,NCI-H23,0.000605 µM (active)
same,GI50,NCI-H460,0.000859 µM (active)
same,GI50,NCI-H522,0.000211 µM (active)
same,GI50,NCI/ADR-RES,0.000516 µM (active)
same,GI50,OVCAR-3,0.000303 µM (active)
same,GI50,OVCAR-4,0.00505 µM (active)
same,GI50,OVCAR-5,0.00845 µM (active)
same,GI50,OVCAR-8,0.00222 µM (active)
same,GI50,PC-3,0.000106 µM (active)
same,GI50,RPMI-8226,0.000255 µM (active)
same,GI50,RXF 393,0.000674 µM (active)
same,GI50,SF-268,0.00376 µM (active)
same,GI50,SF-295,0.00046 µM (active)
same,GI50,SF-539,0.000676 µM (active)
same,GI50,SK-MEL-28,0.00219 µM (active)
same,GI50,SK-MEL-2,0.00149 µM (active)
same,GI50,SK-MEL-5,0.00024 µM (active)
same,GI50,SK-OV-3,0.00221 µM (active)
same,GI50,SN12C,0.00405 µM (active)
same,GI50,SNB-19,0.00191 µM (active)
same,GI50,SNB-75,0.000321 µM (active)
same,GI50,SNB-78,0.00261 µM (active)
same,GI50,SR,0.000498 µM (active)
same,GI50,SW-620,0.000482 µM (active)
same,GI50,T47D,2.65 µM (inactive)
same,GI50,TK-10,0.00681 µM (active)
same,GI50,U-251,0.000899 µM (active)
same,GI50,UACC-257,0.0008 µM (active)
same,GI50,UACC-62,0.000469 µM (active)
same,GI50,UO-31,0.00539 µM (active)
same,GI50,XF498,0.00123 µM (active)
